Reference: patent publication US11389456B2, “Compounds and methods for treating oxalate-related diseases” (OxaluRx, Inc., priority 2018, dated 2022)
≈ marks a conversion by molar mass, not a printed value. Where two headings read alike, the source gives them in different places.

Experiments:
[1] = Solubility in aqueous solution (deionized, distilled water); assay type: physicochemical; conditions: kinetic from dmso stock, 1% DMSO, read-out: Aqueous Solubility H2O
In short: (§1)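 DMSO stock (10 mM) diluted into 100 mM phosphate buffer pH 7.4, or into deionized distilled water for the aqueous assay, at 1% final DMSO and shaken 1 h at room temperature. After centrifugation, supernatants quantified by LC-MS/MS against a calibration curve with internal standard.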

[2] = molecular target: glycolate oxidase (GOX) in HepaRG-CAR cells (Homo sapiens (Human), UniProt Q9UJM8); assay: HepaRG-CAR cell-based assay for quantitation of glycolate oxidase inhibition (cellular glycolate flux, GC-MS)
glycolate oxidase (GOX) in HepaRG-CAR cells, sequence (Q9UJM8 whole entry): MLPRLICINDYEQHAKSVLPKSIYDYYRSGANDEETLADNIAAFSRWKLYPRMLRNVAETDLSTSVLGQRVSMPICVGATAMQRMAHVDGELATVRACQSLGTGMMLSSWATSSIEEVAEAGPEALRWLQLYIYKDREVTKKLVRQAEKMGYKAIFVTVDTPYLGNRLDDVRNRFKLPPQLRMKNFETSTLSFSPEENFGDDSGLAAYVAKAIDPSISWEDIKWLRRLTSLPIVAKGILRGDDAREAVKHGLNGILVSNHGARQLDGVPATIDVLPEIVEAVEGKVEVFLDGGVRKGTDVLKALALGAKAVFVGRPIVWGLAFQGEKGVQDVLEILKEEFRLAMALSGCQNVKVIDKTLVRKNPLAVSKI

[3] = molecular target: recombinant full-length human hydroxyacid oxidase 1 (HAO1), the equivalent of hGOX (Homo sapiens (Human), UniProt Q9UJM8); assay: In-vitro human glycolate oxidase (hGOX) assay (Amplex red/HRP fluorescence); assay type: biochemical
recombinant full-length human hydroxyacid oxidase 1 (HAO1), the equivalent of hGOX, sequence (Q9UJM8 whole entry): as above
Experimental: Biological Activity Assay: In-Vitro Human Glycolate Oxidase (hGOX) Assay
The in-vitro glycolate oxidase assay was performed using recombinant full-length human hydroxyacid oxidase 1 (HAO1), the equivalent of hGOX. […] Purified HAO1 was dissolved in assay buffer consisting of 10 mM NaCl, 110 mM KCl, 2 mM MgCl2, 50 mM HEPES (pH 7.4) and 0.01% Triton™ X-100.

[4] = Stability in human plasma; assay type: in vitro ADME; conditions: read-out: Plasma Stability T1/2
In short: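 Pooled human plasma (pH 7.4-8) at 37° C, test compound spiked from a 0.02 mM solution in phosphate buffer with 0.5% BSA. Samples taken at 0, 5, 15, 30, 45 and 60 min, quenched with acetonitrile containing internal standard, and remaining compound measured by LC/MS.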

[5] = Metabolic stability in human liver microsomal preparation; assay type: in vitro ADME; conditions: pH 7.4, human liver microsomes, NADPH, 37° C.; for half-life at 1 μM: 0-45 min, read-out: Metabolic Stability t1/2
In short: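 Compound at 1.5 μM with 0.75 mg/mL human liver microsomes (concentrations before NADPH addition) in 0.1 M potassium phosphate, 1 mM EDTA, pH 7.4 was preincubated 5 min at 37 °C, then started with NADPH. Samples at 0, 5, 15, 30 and 45 min were quenched with acetonitrile/internal standard and analysed by LC/MS.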

[6] = Solubility in phosphate buffered saline (PBS), pH 7.4; assay type: physicochemical; conditions: phosphate buffer (PBS), aqueous buffer, kinetic from dmso stock; phosphate buffered saline pH 7.4, 1% DMSO, 1 hour shaking at room temperature
In short: as §1

[7] = Protein binding (plasma equilibrium dialysis); assay type: in vitro ADME; conditions: 5 hours at 37° C.; for fraction unbound at 5 h, 1 μM: read-out: Protein Binding Fraction Bound (converted)
In short: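 Compound spiked into plasma at 1 μM final (0.2% DMSO) and dialysed against phosphate buffer for 5 hours at 37 °C with shaking. Donor and receiver samples, matrix-matched and acetonitrile-quenched with internal standard, quantified by LC/MS/MS alongside 0-hour plasma samples.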

[8] = HepaRG-CAR cells, 500 μM glycolate, 48 hours incubation, read-out: IC50

Structure (SMILES) | solubility at 1 h [1] [µM] | IC50 [2, 8] [nM] | IC50 [3] [nM] | half-life at 2 μM [4] [h] | CLint scaled at 1 μM [5] [mL/min/kg] | half-life at 1 μM [5] [h] | solubility at 1 h [6] [µM] | recovery at 5 h, 1 μM [7] [%] | fraction unbound at 5 h, 1 μM [7] | IC50 [2] [nM]
O=C(O)c1nn[nH]c1Oc1ccc(-c2ccc(F)cc2)cc1 [Example I-160, 5-((4′-Fluoro-[1,1′-biphenyl]-4-yl)oxy)-1H-1,2,3-triazole-4-carboxylic acid] | 64.6 (≈ 19.3 µg/mL) | 2500 | 12 | 2.88 | 6.99 | 4.14 | 101 (≈ 30.3 µg/mL) | 93.6 |  | 
CS(=O)(=O)c1ccc(-c2cccc(Oc3[nH]nnc3C(=O)O)c2)cc1 [Example I-257, 5-((4′-(Methylsulfonyl)-[1,1′-biphenyl]-3-yl)oxy)-1H-1,2,3-triazole-4-carboxylic acid] | 89.8 (≈ 32.3 µg/mL) | 2500 | 13 | 3.04 | 1.53 | 19 | 91.8 (≈ 33 µg/mL) | 102 | 0.022 | 
O=C(O)c1nn[nH]c1Oc1ccc(-c2ccc(Br)cc2)cc1 [Example I-154, 5-((4′-Bromo-[1,1′-biphenyl]-4-yl)oxy)-1H-1,2,3-triazole-4-carboxylic acid] | 29.1 (≈ 10.5 µg/mL) | > 10000 | 5 | 1.85 | < 0.15 | > 83.3 | 93.7 (≈ 33.7 µg/mL) | 98.5 |  | 
O=C(O)c1nn[nH]c1Oc1cccc(-c2cccc(Cl)c2)c1 [Example I-253, 5-((3′-Chloro-[1,1′-biphenyl]-3-yl)oxy)-1H-1,2,3-triazole-4-carboxylic acid] | 91.7 (≈ 29 µg/mL) | 2500 | 9 | 1.78 | 5.51 | 5.26 | 102 (≈ 32.2 µg/mL) | 112 |  | 
O=C(O)c1nn[nH]c1Oc1cncc(-c2cccnc2)c1 [Example I-264, 5-([3,3′-Bipyridin]-5-yloxy)-1H-1,2,3-triazole-4-carboxylic acid] | 105 (≈ 29.7 µg/mL) | > 10000 | 380 | 1.72 | 0.17 | 173 | 108 (≈ 30.4 µg/mL) | 123 |  | 
O=C(O)c1nn[nH]c1Oc1cccc(-c2cccnc2)c1 [Example I-259, 5-(3-(Pyridin-3-yl)phenoxy)-1H-1,2,3-triazole-4-carboxylic acid] | 96.1 (≈ 27.1 µg/mL) | 2000 | 18 | 1.33 | 0.45 | 64.3 | 93.1 (≈ 26.3 µg/mL) | 105 | 0.221 | 
O=C(O)c1nn[nH]c1Oc1ccc(-c2ccccc2F)cc1 [Example I-174, 5-((2′-Fluoro-[1,1′-biphenyl]-4-yl)oxy)-1H-1,2,3-triazole-4-carboxylic acid] | 70.3 (≈ 21.1 µg/mL) | 3000 | 27 | 1.17 | 2.48 | 11.7 | 89.8 (≈ 26.9 µg/mL) | 99.9 |  | 
O=C(O)c1nn[nH]c1Oc1cccc(-c2ccncc2)c1 [Example I-260, 5-(3-(Pyridin-4-yl)phenoxy)-1H-1,2,3-triazole-4-carboxylic acid] | 94.4 (≈ 26.6 µg/mL) | 2500 | 21 | 1.79 | 2.81 | 10.3 | 100 (≈ 28.4 µg/mL) | 114 | 0.047 | 
O=C(O)c1nn[nH]c1Oc1ccc2ccccc2c1 [Example I-058, 5-(Naphthalen-2-yloxy)-1H-1,2,3-triazole-4-carboxylic acid] | 81.5 (≈ 20.8 µg/mL) | 2000 | 50 | 0.852 | 2.1 | 13.8 | 90.8 (≈ 23.2 µg/mL) | 101 |  | 
O=C(O)c1nn[nH]c1Oc1cncc(-c2ccccc2)c1 [Example I-262, 5-((5-Phenylpyridin-3-yl)oxy)-1H-1,2,3-triazole-4-carboxylic acid] | 94.2 (≈ 26.6 µg/mL) | > 10000 | 191 | 1.63 | < 0.15 | > 83.3 | 97.2 (≈ 27.4 µg/mL) | 120 | 0.009 | 
O=C(O)c1nn[nH]c1Oc1ccc(-c2ccccc2)nc1 [Example I-263, 5-((6-Phenylpyridin-3-yl)oxy)-1H-1,2,3-triazole-4-carboxylic acid] | 99 (≈ 27.9 µg/mL) | > 10000 | 141 | 1.51 | 2.48 | 11.7 | 106 (≈ 29.9 µg/mL) | 111 | 0.014 | 
N#Cc1cccc(-c2ccc(Oc3[nH]nnc3C(=O)O)cc2)c1 [Example I-256, 5-((3′-Cyano-[1,1′-biphenyl]-4-yl)oxy)-1H-1,2,3-triazole-4-carboxylic acid] | 86.9 (≈ 26.6 µg/mL) |  | 22 | 8.52 | 0.4 | 71.6 | 90.5 (≈ 27.7 µg/mL) | 113 |  | 10000
Cc1cc(Oc2[nH]nnc2C(=O)O)ccc1Cl [Example I-258, 5-(4-Chloro-3-methylphenoxy)-1H-1,2,3-triazole-4-carboxylic acid] | 93.5 (≈ 23.7 µg/mL) | 300 | 44 | 1.05 | < 0.15 | > 83.3 | 95.8 (≈ 24.3 µg/mL) | 110 |  | 
O=C(O)c1nn[nH]c1Oc1cccc(-c2ccc(Cl)c(Cl)c2)c1 [Example I-255, 5-((3′,4′-Dichloro-[1,1′-biphenyl]-3-yl)oxy)-1H-1,2,3-triazole-4-carboxylic acid] | 81 (≈ 28.3 µg/mL) | 5000 | 6 | 3.35 | < 0.15 | > 83.3 | 97.1 (≈ 34 µg/mL) | 102 |  | 
